Test results taken from US8623820B2, “FGF-9 and its use relating to blood vessels” (University of Western Ontario, priority 2008, dated 2014).

How the values were obtained:
[1] = system: Sonic Hedgehog signaling; assay: Matrigel plug with cyclopamine, CD31 / SM α-actin immunostaining; type: in vivo, mice; details: FGF-2+FGF-9 plugs with 500 nM cyclopamine
Experimental: FIG. 15A. RT-PCR of human aortic SMCs stimulated with increasing concentrations of recombinant FGF-9 for 24 h. 15B, RT-PCR of human aortic SMCs overexpressing cDNA encoding GFP or FGF-9. 15C, Western Blots of C57/Bl6 dermal fibroblasts pretreated with either DMSO or 500 nM cyclopamine and subsequently stimulated with vehicle or FGF-9 for 24 hr. 15D. Photomicrographs of FGF-2 and FGF-9 containing matrigel plugs with either DMSO or cyclopamine double immunolabeled for CD31 (brown) and sm α-actin (red). E Quantitation of SM α-actin coverage of CD31-positive vessels representative of 6 mice bearing FGF-2 or FGF-2+FGF-9 with either vehicle or 500 nM cyclopamine (79±4 vs 38±4.8, p<0.05).

[2] = system: microvessels in matrigel plug; assay: Intravital vasoreactivity of matrigel plug microvessels; type: in vivo, mice; details: 14 days after matrigel injection
Experimental: 14 days after matrigel injection mice were anesthetized, the skin overlying a matrigel was surgically removed and a catheter to deliver drugs was sutured in the region of the plug. FITC-labeled dextran was injected via tail vein and the diameter of vessels in the matrigel plug was visualized using an inverted fluorescent microscope. Doses of vasoconstrictors indicated in FIG. 9 were applied and images of vessels were acquired over 5 minutes.
In separate experiments, doses of the vasoconstrictor PE followed by the vasodilator were applied to the blood vessels in matrigel plugs.

[3] = system: CD31-positive endothelial cell-lined microvessels; assay: Subcutaneous matrigel plug angiogenesis, CD31 immunostaining; type: in vivo, C57/Bl6 mice
Experimental: Matrigel plugs were mixed with either 500 ng/mL FGF-9, 500 ng/mL FGF-2 or 500 ng/mL FGF-2 and 200 ng/mL FGF-9 and subcutaneously injected into 3 month old C57/Bl6 mice. Mice were sacrificed and matrigel plugs were harvested 8 days after implantation and immunostained for CD31 (brown), to identify endothelial cell-lined microvessels.
CD31-positive microvessels immunostained in FIGS. 5B and 5C are quantified.

[4] = system: SM α-actin positive cells on CD31 nascent blood vessels; assay: Matrigel plug, SM α-actin coverage of CD31-positive vessels in 200 μm sections; type: in vivo, mice; details: 200 μm thick sections, 8 days after implantation
Description: Photomicrographs of Matrigel plugs harvested 8 days after implantation, cut into 200 μm thick-sections and immunostained for CD31 (left panel) and SM α-actin (central panel) and quantitation of SM α-actin coverage of CD31-positive vessels.

[5] = system: SM α-actin expressing mural cells at nascent microvessels; assay: Matrigel plug, CD31 / SM α-actin immunostaining of 8 μm sections; type: in vivo, C57/Bl6 mice; details: 8 days after implantation
Description: Photomicrographs of 8 μm-thick sections of Matrigel plugs harvested 8 days after implantation into C57/Bl6 mice and immunostained for CD31 (brown) and smooth muscle α-actin (red) and quantification of the percentage of microvessels supported by smooth muscle (SM) α-actin positive cells.

Row | Molecule | SM α-actin coverage of CD31-positive vessels [1] | constriction of microvessels in response to phenylephrine (PE) and KCl [2] | area of CD31-positive microvessels ([3]; matrigel plugs, 8 days after implantation) | angiogenesis, CD31 immunoreactivity inside the matrigel ([3]; plugs with 500 ng/mL FGF-9, 500 ng/mL FGF-2 or 500 ng/mL FGF-2 and 200 ng/mL FGF-9, harvested 8 days after implantation) | SM α-actin positive cell coverage of CD31 nascent blood vessels [4] [%] | percentage of microvessels supported by smooth muscle (SM) α-actin positive cells [5] [%]
1 | CC1=C2C[C@H]3[C@@H](CC=C4C[C@@H](O)CC[C@@]43C)[C@@H]2CC[C@]12O[C@@H]1C[C@H](C)CN[C@H]1[C@H]2C [cyclopamine] | 38±4.8 | – | – | – | – | –
2 | FGF-2: fibroblast growth factor 2, angiogenic polypeptide used as comparator and co-factor | – | mild if any response | equivalent levels of angiogenesis | induce angiogenesis | 7.2±1.8 | 37±5.4
